# Test results: US20060100431A1, “Biologically active compounds” (Amura Therapeutics Limited, priority 2002, published 2006)
# Columns and labels:
# Type in all cases: biochemical
# Wild-type cruzipain = Wild-type cruzipain (Trypanosoma cruzi, UniProt P25779); test: Trypanosoma cruzi cruzipain peptidase activity assay (Ki); details: read-out: Ki, inhibitors of cruzain and cruzipains
# How it was run: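 Native cruzipain from T. cruzi Dm28 epimastigotes, 2.5 nM, in 100 mM sodium phosphate pH 6.75 with 1 mM EDTA and 10 mM L-cysteine, 25 °C, DMSO <1%. Rates taken from continuous fluorogenic substrate read; Ki by regression assuming reversible pure-competitive inhibition.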
# CPB2.8ΔCTE = target: T1, CPB2.8ΔCTE (Leishmania mexicana, UniProt P36400); test: Leishmania mexicana cysteine protease B (CPB) peptidase activity assay (Ki); details: Ki, inhibitors of Leismania mexicana CPB protease
# T1 construct: Wild-type recombinant CPB without the C-terminal extention (i.e. CPB2.8ΔCTE); Dr. Jeremy Mottram (Wellcome Centre for Molecular Parasitology, University of Glasgow)
# T1 sequence (P36400 126-343, stated change not applied): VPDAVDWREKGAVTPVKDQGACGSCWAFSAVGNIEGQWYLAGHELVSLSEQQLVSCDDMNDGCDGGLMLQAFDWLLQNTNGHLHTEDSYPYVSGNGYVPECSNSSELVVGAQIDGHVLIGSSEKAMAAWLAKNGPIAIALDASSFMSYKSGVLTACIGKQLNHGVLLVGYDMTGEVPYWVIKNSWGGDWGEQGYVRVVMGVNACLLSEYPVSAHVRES
# How it was run: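 Recombinant CPB2.8ΔCTE (0.25 nM) was assayed in 100 mM sodium acetate pH 5.5 with 1 mM EDTA, 200 mM NaCl and 10 mM DTT at 25 °C, DMSO <1%, enzyme added to start. Rates were taken from continuous fluorescence slopes; apparent Ki was fitted assuming reversible, pure-competitive inhibition.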
# human cathepsin L = target: T2, human cathepsin L (Homo sapiens, UniProt P07711); test: Cathepsin L peptidase activity assay (Ki); details: read-out: Ki, inhibitors of cathepsin L
# T2 construct: purchased CN Biosciences
# T2 sequence (P07711 114-333): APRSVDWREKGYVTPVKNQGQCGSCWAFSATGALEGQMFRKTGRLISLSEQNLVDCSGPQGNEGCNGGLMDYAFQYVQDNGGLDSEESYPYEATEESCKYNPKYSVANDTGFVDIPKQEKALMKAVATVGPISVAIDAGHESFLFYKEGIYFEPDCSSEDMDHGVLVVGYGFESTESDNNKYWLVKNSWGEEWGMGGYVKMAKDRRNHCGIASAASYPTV
# Description: Unless otherwise stated, all general chemicals and biochemicals were purchased from either the Sigma Chemical Company, Poole, Dorset, U.K or from Fisher Scientific UK, Loughborough, Leicestershire, U.K. Absorbance assays were carried out in flat-bottomed 96-well plates (Spectra; Greiner Bio-One Ltd., Stonehouse, Gloucestershire, U.K.) using a SpectraMax PLUS384 plate reader (Molecular Devices, Crawley, U.K.). Fluorescence high throughput assays were carried out in either 384-well microtitre plates (Corning Costar 3705 plates, Fisher Scientific) or 96-well ‘U’ bottomed Microfluor W1 microtitre plates (Thermo Labsystems, Ashford, Middlesex, U.K.). Fluorescence assays were monitored using a SpectraMax Gemini fluorescence plate reader (Molecular Devices). For substrates employing either a 7-amino-4-methylcoumarin (AMC) or a 7-amino-4-trifluoromethylcoumarin (AFC) fluorophore, assays were monitored at an excitation wavelength of 365 nm and an emission wavelength of 450 nm and the fluorescence plate reader calibrated with AMC. For substrates employing a 3-amino-benzoyl (Abz) fluorophore, assays were monitored at an excitation wavelength of 310 nm and an emission wavelength of 445 nm; the fluorescence plate reader calibrated with 3-amino-benzamide (Fluka). Unless otherwise indicated, all the peptidase substrates were purchased from Bachem UK, St Helens, Merseyside, UK. Substrates utilizing fluorescence resonance energy transfer methodology (i.e. FRET-based substrates) were synthesized at Incenta Limited using published methods (Atherton & Sheppard, Solid Phase Peptide Synthesis, IRL Press, Oxford, U.K, 1989) and employed Abz (2-aminobenzoyl) as the fluorescence donor and 3-nitro-tyrosine [Tyr(NO2)] as the fluorescence quencher (Meldal, M. and Breddam, K., Anal. Biochem, 195, 141-147, 1991). Hydroxyethylpiperazine ethanesulfonate (HEPES), tris-hydroxylmethyl aminomethane (tris) base, bis-tris-propane and all the biological detergents (e.g. CHAPS, zwittergents, etc.) were purchased from CN Biosciences UK, Beeston, Nottinghamshire, U.K. Glycerol was purchased from Amersham Pharmacia Biotech, Little Chalfont, Buckinghamshire, U.K. Stock solutions of substrate or inhibitor were made up to 10 mM in 100% dimethylsulfoxide (DMSO) (Rathburns, Glasgow, U.K.) and diluted as appropriately required. In all cases the DMSO concentration in the assays was maintained at less than 1% (vol./vol.).
# Assay protocols were based on literature precedent (Table 4; Barrett, A. J., Rawlings, N. D. and Woessner, J. F., 1998, Handbook of Proteolytic Enzymes, Academic Press, London and references therein) and modified as required to suit local assay protocols. Enzyme was added as required to initiate the reaction and the activity, as judged by the change in fluorescence upon conversion of substrate to product, was monitored over time. All assays were carried out at 25±1° C.
# Bovine cathepsin S, human cathepsin L, human cathepsin H and human cathepsin B were obtained from CN Biosciences. Recombinant human cathepsin S, human cathepsin K and human cathepsin X were obtained from Dr. Boris Turk (Josef Stefan Institute, Ljubljana, Slovenia). Unless otherwise stated, all peptidase activity assays were carried out in 10 mM bis-tris-propane (BTP), pH 6.5 containing 1 mM EDTA, 5 mM 2-mercaptoethanol and 1 mM CaCl2. Human cathepsin H activity assays were carried out in 10 mM BTP pH 6.5, 142 mM NaCl2, 1 mM CaCl2, 1 mM EDTA, 1 mM DTT, 0.035 mM Zwittergent 3-16. Human cathepsin K assays were carried out in 100 mM sodium acetate; pH 5.5 containing 20 mM L-cysteine and 1 mM EDTA (Bossard, M. J., et. al., J. Biol. Chem., 21, 12517-12524, 1996). Human cathepsin X assays were carried out in 100 mM sodium acetate; pH 5.5 containing 20 mM L-cysteine; 0.05% (w/v) Brij 35 and 1 mM EDTA (Santamaria, I., et. al., J. Biol. Chem., 273, 16816-16823, 1998; Klemencic, J, et al., Eur. J. Biochem., 267, 5404-5412, 2000). […]
# Chain of Wild-type cruzipain (P25779 whole entry): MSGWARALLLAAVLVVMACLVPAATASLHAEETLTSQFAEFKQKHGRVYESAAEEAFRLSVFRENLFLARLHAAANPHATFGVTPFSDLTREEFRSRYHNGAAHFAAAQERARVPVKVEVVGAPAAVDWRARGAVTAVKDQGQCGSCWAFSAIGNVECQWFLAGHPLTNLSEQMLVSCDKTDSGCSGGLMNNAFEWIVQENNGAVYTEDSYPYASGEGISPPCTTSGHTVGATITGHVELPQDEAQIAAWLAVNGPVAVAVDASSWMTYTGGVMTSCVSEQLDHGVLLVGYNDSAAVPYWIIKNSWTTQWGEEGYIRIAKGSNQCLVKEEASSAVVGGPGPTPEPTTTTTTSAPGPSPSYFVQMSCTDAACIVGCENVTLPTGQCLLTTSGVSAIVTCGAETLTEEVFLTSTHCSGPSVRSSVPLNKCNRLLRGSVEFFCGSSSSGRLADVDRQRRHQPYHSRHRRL
SMILES,Ki (Wild-type cruzipain),Ki (CPB2.8ΔCTE),Ki (human cathepsin L)
"CC(C)C[C@H](NC(=O)c1ccc(N(C)C)cc1)C(=O)N1CC[C@@H]2[C@H]1C(=O)CN2C(=O)c1cccc(F)c1 [Example 63, (3aR,6aS)-4-Dimethylamino-N-{(1S)-1-[4-(3-fluoro-benzoyl)-6-oxo-hexahydro-pyrrolo[3,2-b]pyrrole-1-carbonyl]-3-methyl-butyl}-benzamide]",< 5 µM,< 5 µM,< 5 µM
"CC(C)C[C@H](NC(=O)c1ccc(N(C)C)cc1)C(=O)N1CC[C@@H]2[C@H]1C(=O)CN2C(=O)c1cccc(C(F)(F)F)c1 [Example 68, (3aR,6aS)-4-Dimethylamino-N-{(1S)-3-methyl-1-[6-oxo-4-(3-trifluoromethyl-benzoyl)-hexahydro-pyrrolo[3,2-b]pyrrole-1-carbonyl]-butyl}-benzamide]",< 5 µM,< 5 µM,< 5 µM
"Cc1cc(C)cc(C(=O)N2CC(=O)[C@@H]3[C@H]2CCN3C(=O)[C@H](CC(C)C)NC(=O)c2ccc(N(C)C)cc2)c1 [Example 111, (3aR,6aS)-4-Dimethylamino-N-{(1S)-1-[4-(3,5-dimethyl-benzoyl)-6-oxo-hexahydro-pyrrolo[3,2-b]pyrrole-1-carbonyl]-3-methyl-butyl}-benzamide]",< 5 µM,< 5 µM,< 5 µM
"CC(C)C[C@H](NC(=O)c1ccc([N+](C)(C)[O-])cc1)C(=O)N1CC[C@@H]2[C@H]1C(=O)CN2C(=O)c1ccccc1 [Example 117, (3aR,6aS)-N-[(1S)-1-(4-Benzoyl-6-oxo-hexahydro-pyrrolo[3,2-b]pyrrole-1-carbonyl)-3-methyl-butyl]-4-(N-oxy-dimethylamino)-benzamide]",< 5 µM,< 5 µM,< 5 µM
"CC(C)C[C@H](NC(=O)c1cccc(CN)c1)C(=O)N1CC[C@@H]2[C@H]1C(=O)CN2C(=O)Cc1ccccc1 [Example 118, (3aR,6aS)-3-Aminomethyl-N-[(1S)-3-methyl-1-(6-oxo-4-phenylacetyl-hexahydro-pyrrolo[3,2-b]pyrrole-1-carbonyl)-butyl]-benzamide]",< 5 µM,< 5 µM,< 5 µM
"CC(C)C[C@H](NC(=O)c1cccc(CN)c1)C(=O)N1CC[C@@H]2[C@H]1C(=O)CN2C(=O)Nc1ccccc1 [Example 175, (3aS,6aR)-4-[(2S)-2-(3-Aminomethyl-benzoylamino)-4-methyl-pentanoyl]-3-oxo-hexahydro-pyrrolo[3,2-b]pyrrole-1-carboxylic acid phenylamide]",< 5 µM,< 5 µM,< 5 µM
"CC(C)C[C@H](NC(=O)c1cccc(CN)c1)C(=O)N1CC[C@@H]2[C@H]1C(=O)CN2C(=O)Cc1ccccc1F [Example 178, (3aR,6aS)-3-Aminomethyl-N-((1S)-1-{4-[2-(2-fluoro-phenyl)-acetyl]-6-oxo-hexahydro-pyrrolo[3,2-b]pyrrole-1-carbonyl}-3-methyl-butyl)-benzamide]",–,< 5 µM,< 5 µM
"CC(C)C[C@H](NC(=O)c1cccc(CN)c1)C(=O)N1CC[C@@H]2[C@H]1C(=O)CN2C(=O)Cc1cccc(F)c1 [Example 179, (3aR,6aS)-3-Aminomethyl-N-((1S)-1-{4-[2-(3-fluoro-phenyl)-acetyl]-6-oxo-hexahydro-pyrrolo[3,2-b]pyrrole-1-carbonyl}-3-methyl-butyl)-benzamide]",–,< 5 µM,< 5 µM
"CC(C)C[C@H](NC(=O)c1cccc(CN)c1)C(=O)N1CC[C@@H]2[C@H]1C(=O)CN2C(=O)Cc1ccc(F)cc1 [Example 180, (3aR,6aS)-3-Aminomethyl-N-((1S)-1-{4-[2-(4-fluoro-phenyl)-acetyl]-6-oxo-hexahydro-pyrrolo[3,2-b]pyrrole-1-carbonyl}-3-methyl-butyl)-benzamide]",< 5 µM,< 5 µM,< 5 µM
"CC(C)C[C@H](NC(=O)c1cccc(CN)c1)C(=O)N1CC[C@@H]2[C@H]1C(=O)CN2C(=O)[C@H](N)c1ccccc1 [Example 181, (3aR,6aS)-3-Aminomethyl-N-{(1S)-1-[4-((2R)-2-amino-2-phenyl-acetyl)-6-oxo-hexahydro-pyrrolo[3,2-b]pyrrole-1-carbonyl]-3-methyl-butyl}-benzamide]",–,< 5 µM,< 5 µM
"CC(C)C[C@H](NC(=O)c1cccc(CN)c1)C(=O)N1CC[C@@H]2[C@H]1C(=O)CN2C(=O)[C@@H](N)c1ccccc1 [Example 182, (3aR,6aS)-3-Aminomethyl-N-{(1S)-1-[4-((2S)-2-amino-2-phenyl-acetyl)-6-oxo-hexahydro-pyrrolo[3,2-b]pyrrole-1-carbonyl)-3-methyl-butyl}-benzamide]",–,< 5 µM,< 5 µM
"CC[C@H](NC(C)=O)C(=O)N1CC(=O)[C@@H]2[C@H]1CCN2C(=O)[C@H](CC(C)C)NC(=O)c1ccc(N(C)C)cc1 [Example 204, (3aR,6aS)-N-{(1S)-1-[4-((2S)-2-Acetylamino-butyryl)-6-oxo-hexahydro-pyrrolo[3,2-b]pyrrole-1-carbonyl]-3-methyl-butyl}-4-dimethylamino-benzamide]",< 5 µM,< 5 µM,< 5 µM
"O=C(N[C@@H](CC1CCCCC1)C(=O)N1CC[C@@H]2[C@H]1C(=O)CN2C(=O)c1ccc2ccccc2c1)c1ccsc1 [Example 256, (3aR,6aS)-Thiophene-3-carboxylic acid {(1S)-1-cyclohexylmethyl-2-[4-(naphthalene-2-carbonyl)-6-oxo-hexahydro-pyrrolo[3,2-b]pyrrol-1-yl]-2-oxo-ethyl}-amide]",< 5 µM,–,< 5 µM
"NCc1cccc(C(=O)N[C@@H](CSCc2ccccc2)C(=O)N2CC[C@@H]3[C@H]2C(=O)CN3C(=O)c2ccccc2)c1 [Example 278, (3aR,6aS)-3-Aminomethyl-N-[(1R)-2-(4-benzoyl-6-oxo-hexahydro-pyrrolo[3,2-b]pyrrole-1-yl)-1-benzylsulfanylmethyl-2-oxo-ethyl]-benzamide]",–,< 5 µM,< 5 µM
"O=C(N[C@@H](CC1CCCCC1)C(=O)N1CC[C@@H]2[C@H]1C(=O)CN2C(=O)c1ccccc1)c1cccs1 [Example 287, (3aR,6aS)-Thiophene-2-carboxylic acid [(1S)-2-(4-benzoyl-6-oxo-hexahydro-pyrrolo[3,2-b]pyrrole-1-yl)-1-cyclohexylmethyl-2-oxo-ethyl]-amide]",< 5 µM,–,< 5 µM
"O=C(N[C@@H](CC1CCCCC1)C(=O)N1CC[C@@H]2[C@H]1C(=O)CN2C(=O)c1ccccc1)c1ccco1 [Example 288, (3aR,6aS)-Furan-2-carboxylic acid [(1S)-2-(4-benzoyl-6-oxo-hexahydro-pyrrolo[3,2-b]pyrrole-1-yl)-1-cyclohexylmethyl-2-oxo-ethyl]-amide]",< 5 µM,–,< 5 µM
